In ChEMBL document CHEMBL1201862, “PubChem BioAssay data set” (2004):
“And” between values parts separate entries of the source, which are not always exact repeats. Identical values can stand only once. The source made the active and inactive calls.

How the values were obtained:
[1] = biological target: T1, DNA dC->dU-editing enzyme APOBEC-3A (Homo sapiens, UniProt P31941); experiment: Dose Response confirmation of small molecule APOBEC3A DNA Deaminase Inhibitors via a fluorescence-based single-stranded DNA deaminase assay. [Related pubchem assays (depositor defined):AID493011, AID493024]; format: functional
T1 sequence (P31941 whole entry): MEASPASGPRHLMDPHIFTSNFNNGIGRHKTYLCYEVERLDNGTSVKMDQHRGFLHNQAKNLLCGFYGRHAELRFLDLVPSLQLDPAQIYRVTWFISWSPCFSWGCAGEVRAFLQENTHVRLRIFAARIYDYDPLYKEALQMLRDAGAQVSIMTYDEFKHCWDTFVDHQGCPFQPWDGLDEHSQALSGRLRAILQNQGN

[2] = biological target: T2, DNA dC->dU-editing enzyme APOBEC-3G (Homo sapiens, UniProt Q9HC16); format: functional
T2 sequence (Q9HC16 whole entry): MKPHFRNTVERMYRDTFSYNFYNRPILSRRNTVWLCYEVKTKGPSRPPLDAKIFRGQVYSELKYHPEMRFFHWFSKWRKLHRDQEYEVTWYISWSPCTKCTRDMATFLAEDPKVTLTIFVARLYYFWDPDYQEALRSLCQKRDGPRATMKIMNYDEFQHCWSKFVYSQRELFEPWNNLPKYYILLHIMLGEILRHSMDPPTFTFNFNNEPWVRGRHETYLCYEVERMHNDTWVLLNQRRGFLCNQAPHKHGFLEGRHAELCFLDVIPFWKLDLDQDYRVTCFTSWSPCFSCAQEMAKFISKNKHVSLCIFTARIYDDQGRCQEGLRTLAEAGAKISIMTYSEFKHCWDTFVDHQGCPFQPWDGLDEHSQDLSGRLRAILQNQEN

[3] = biological target: T1, DNA dC->dU-editing enzyme APOBEC-3A; experiment: SAR analysis of small molecule inhibitors of APOBEC3A DNA Deaminase via a fluorescence-based single-stranded DNA deaminase assay.; format: functional; settings: read-out: IC50_Mean
INS1 = experiment: INS-1E survival protection against cytokine death – cell-based, luminescence, retest, dose response (AID 449756); format: functional; settings: Rattus norvegicus;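 note: cell death triggered by IL-1 beta plus TNF-alpha plus IFN-gamma mixture; protective hits raise ATP signal compared with cytokine alone wells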
Beta-lactamase [4] = biological target: Beta-lactamase (Pseudomonas aeruginosa, UniProt Q79MP6);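 note: biochemical dose-response test of metallo-beta-lactamase enzyme inhibition, read out by epi-absorbance; purified recombinant IMP-1 metallo-beta-lactamase with nitrocefin as substrate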
[5] = biological target: FAD-linked sulfhydryl oxidase ALR (Homo sapiens, UniProt P55789); experiment: ALR-catalysed DTT oxidation blockers – biochemical, H2O2 detection, luminescence, cherry-pick, dose response (AID 493248)
[6] = biological target: T2, DNA dC->dU-editing enzyme APOBEC-3G; experiment: SAR analysis of small molecule inhibitors of APOBEC3G DNA Deaminase via a fluorescence-based single-stranded DNA deaminase assay - Set 2.; format: functional; settings: read-out: IC50_Mean
[7] = luciferase reporter signal suppression in cells – H4 neuroglioma cells, luminescence, dose response (AID 1990); format: functional, cell-based
[8] = alpha-synuclein stem-loop luciferase translation blockers – H4 neuroglioma cells, luminescence, confirmation (AID 1988); format: functional, cell-based
Beta-lactamase [9] = biological target: Beta-lactamase (Salmonella choleraesuis (strain SC-B67), UniProt Q5J463)
[10] = biological target: T1, DNA dC->dU-editing enzyme APOBEC-3A; experiment: SAR analysis of small molecule inhibitors of APOBEC3A DNA Deaminase via a fluorescence-based single-stranded DNA deaminase assay - Set 2.; format: functional; settings: read-out: IC50_Mean
[11] = Trypanosoma cruzi growth suppression in host cells – NIH3T3 host cells, beta-gal luminescence, confirmation (AID 2044); format: functional, cell-based;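 note: intracellular parasites grown in NIH/3T3 mouse fibroblasts as host cells; luminescent beta-galactosidase reporter signal from transgenic T. cruzi replicating inside host cells; inhibitors lower the luminescence signal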
[12] = Luminescence Cell-Based Dose Response HTS to Identify Inhibitors of 5'UTR Stem-Loop Driven Prion Protein mRNA Translation in H4 Neuroglioblastoma Cells. [Related pubchem assays: 1827 (Project Summary), 1813 (Primary HTS)]; format: functional
[13] = biological target: T2, DNA dC->dU-editing enzyme APOBEC-3G; experiment: inhibition of APOBEC3G ssDNA deamination – biochemical, fluorescence, single-stranded DNA substrate, SAR follow-up (AID 602136); format: functional; settings: read-out: IC50_Mean
[14] = NIH3T3 cell viability loss – ATP luminescence, mouse fibroblasts, counter-screen, dose response (AID 2010); format: functional, cell-based;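 note: cells exposed to compound for about 90 hours before reading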
[15] = biological target: T3, Glycogen synthase kinase-3 alpha (Homo sapiens, UniProt P49840); experiment: GSK3A enzyme blockers, homolog specificity check – biochemical, microfluidics, dry powder samples, set 2, selectivity assay for GSK3beta inhibitor project, dose response (AID 623978); format: functional
T3 sequence (P49840 whole entry): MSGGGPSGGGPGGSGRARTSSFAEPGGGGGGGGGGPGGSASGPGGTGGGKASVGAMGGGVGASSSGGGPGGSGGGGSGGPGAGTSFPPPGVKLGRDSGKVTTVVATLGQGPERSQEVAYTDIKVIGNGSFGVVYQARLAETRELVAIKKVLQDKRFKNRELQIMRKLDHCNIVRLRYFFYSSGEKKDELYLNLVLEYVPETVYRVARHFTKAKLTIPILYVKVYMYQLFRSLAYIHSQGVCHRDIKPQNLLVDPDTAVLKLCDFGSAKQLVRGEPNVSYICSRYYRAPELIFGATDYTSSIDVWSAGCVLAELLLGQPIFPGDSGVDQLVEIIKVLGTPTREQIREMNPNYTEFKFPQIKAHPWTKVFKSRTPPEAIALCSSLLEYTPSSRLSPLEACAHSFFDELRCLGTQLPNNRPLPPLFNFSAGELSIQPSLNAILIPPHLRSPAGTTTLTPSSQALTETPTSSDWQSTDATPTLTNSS

[16] = biological target: T4, Glycogen synthase kinase-3 beta (Homo sapiens, UniProt P49841); experiment: inhibition of human GSK3B activity – biochemical, microfluidics, dry powder samples, set 2, dose response (AID 623989); format: functional
T4 sequence (P49841 whole entry): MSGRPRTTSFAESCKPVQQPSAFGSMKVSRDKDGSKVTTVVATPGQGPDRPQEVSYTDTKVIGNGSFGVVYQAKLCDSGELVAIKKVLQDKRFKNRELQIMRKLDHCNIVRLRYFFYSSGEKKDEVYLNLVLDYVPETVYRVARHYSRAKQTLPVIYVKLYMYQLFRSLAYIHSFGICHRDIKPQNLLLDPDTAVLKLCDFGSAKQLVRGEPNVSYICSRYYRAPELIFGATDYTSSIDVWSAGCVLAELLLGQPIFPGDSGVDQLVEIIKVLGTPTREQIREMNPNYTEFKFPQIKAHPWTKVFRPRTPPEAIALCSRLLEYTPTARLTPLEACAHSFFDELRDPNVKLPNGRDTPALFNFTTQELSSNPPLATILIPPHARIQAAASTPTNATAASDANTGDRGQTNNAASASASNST

Cytochrome P450 2C19 = Cytochrome P450 2C19 (Homo sapiens, UniProt P33261); experiment: Cytochrome panel assay with activity outcomes. Panel member name: p450-cyp2c19 Compounds with AC50 equal or less than 10 uM are considered active; format: functional; settings: read-out: AC50
Cytochrome P450 2C9 = Cytochrome P450 2C9 (Homo sapiens, UniProt P11712)
[17] = biological target: Tyrosine-protein kinase Lck (Homo sapiens, UniProt P06239); format: functional;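 note: lck was assayed as one member of a kinase panel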
[18] = biological target: BDNF/NT-3 growth factors receptor (Homo sapiens, UniProt Q16620); format: functional;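 note: NTRK2 measured as one member of a broad kinome-wide kinase profiling panel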
[19] = biological target: T3, Glycogen synthase kinase-3 alpha; format: functional
[20] = biological target: Calcium/calmodulin-dependent protein kinase type II subunit alpha (Homo sapiens, UniProt Q9UQM7); experiment: Navigating the Kinome. Panel member name: CAMK2A; format: functional
[21] = biological target: Vascular endothelial growth factor receptor 1 (Homo sapiens, UniProt P17948); format: functional;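 note: measured within a kinome-wide profiling panel, FLT1 as the panel member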
[22] = biological target: T4, Glycogen synthase kinase-3 beta; format: functional
[23] = biological target: ALK tyrosine kinase receptor (Homo sapiens, UniProt Q9UM73); format: functional;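 note: ALK tested as one member of a kinase panel screen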
[24] = biological target: Dual specificity protein kinase CLK2 (Homo sapiens, UniProt P49760); format: functional
[25] = biological target: Tyrosine-protein kinase JAK3 (Homo sapiens, UniProt P52333); format: functional
Focal adhesion kinase 1 = Focal adhesion kinase 1 (Homo sapiens, UniProt Q05397); format: functional;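 note: measured as one member of a kinome panel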
Chain of Focal adhesion kinase 1 (Q05397 whole entry): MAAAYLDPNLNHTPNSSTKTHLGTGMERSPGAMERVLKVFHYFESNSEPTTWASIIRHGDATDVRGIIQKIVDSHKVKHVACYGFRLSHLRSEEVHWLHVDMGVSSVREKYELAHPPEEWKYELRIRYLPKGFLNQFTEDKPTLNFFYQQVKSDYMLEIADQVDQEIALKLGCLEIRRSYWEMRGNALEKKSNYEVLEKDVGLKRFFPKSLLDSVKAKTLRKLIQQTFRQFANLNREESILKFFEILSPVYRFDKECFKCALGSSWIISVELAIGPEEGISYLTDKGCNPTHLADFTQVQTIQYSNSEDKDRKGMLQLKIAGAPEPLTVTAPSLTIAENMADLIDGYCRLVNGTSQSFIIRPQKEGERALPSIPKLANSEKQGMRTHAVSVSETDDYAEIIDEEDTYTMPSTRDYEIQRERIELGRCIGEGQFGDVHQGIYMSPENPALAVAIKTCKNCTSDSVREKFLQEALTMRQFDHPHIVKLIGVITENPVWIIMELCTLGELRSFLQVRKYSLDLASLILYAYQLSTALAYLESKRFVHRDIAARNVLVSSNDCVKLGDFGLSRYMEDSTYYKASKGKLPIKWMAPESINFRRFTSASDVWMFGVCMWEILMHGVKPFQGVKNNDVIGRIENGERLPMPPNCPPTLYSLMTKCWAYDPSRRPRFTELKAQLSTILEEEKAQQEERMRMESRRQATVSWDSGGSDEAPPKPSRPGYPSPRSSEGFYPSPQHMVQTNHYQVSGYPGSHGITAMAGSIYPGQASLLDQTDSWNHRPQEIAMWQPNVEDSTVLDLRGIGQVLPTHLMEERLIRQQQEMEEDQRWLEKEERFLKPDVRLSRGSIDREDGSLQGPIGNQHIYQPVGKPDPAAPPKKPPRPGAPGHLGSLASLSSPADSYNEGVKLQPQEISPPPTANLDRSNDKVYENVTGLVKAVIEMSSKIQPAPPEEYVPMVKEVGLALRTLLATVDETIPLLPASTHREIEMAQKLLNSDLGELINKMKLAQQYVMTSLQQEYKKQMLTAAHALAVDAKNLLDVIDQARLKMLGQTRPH

[26] = biological target: G protein-coupled receptor kinase 5 (Homo sapiens, UniProt P34947); experiment: Navigating the Kinome. Panel member name: GPRK5; format: functional
[27] = biological target: Mitogen-activated protein kinase 14 (Homo sapiens, UniProt Q16539); format: functional;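 note: part of a kinome-wide panel, MAPK14 entry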
Chain of Mitogen-activated protein kinase 14 (Q16539 whole entry): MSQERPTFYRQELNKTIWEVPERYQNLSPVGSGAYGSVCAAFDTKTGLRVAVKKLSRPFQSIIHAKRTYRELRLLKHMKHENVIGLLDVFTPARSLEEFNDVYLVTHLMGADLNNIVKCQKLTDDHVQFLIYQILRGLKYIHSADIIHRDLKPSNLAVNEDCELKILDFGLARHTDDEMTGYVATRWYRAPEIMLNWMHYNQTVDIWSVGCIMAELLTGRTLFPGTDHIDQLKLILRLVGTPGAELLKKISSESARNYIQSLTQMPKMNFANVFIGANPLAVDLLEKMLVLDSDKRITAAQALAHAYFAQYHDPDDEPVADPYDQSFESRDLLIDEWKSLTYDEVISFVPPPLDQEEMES

[28] = biological target: Serine/threonine-protein kinase pim-1 (Homo sapiens, UniProt P11309); format: functional
Chain of Serine/threonine-protein kinase pim-1 (P11309 whole entry): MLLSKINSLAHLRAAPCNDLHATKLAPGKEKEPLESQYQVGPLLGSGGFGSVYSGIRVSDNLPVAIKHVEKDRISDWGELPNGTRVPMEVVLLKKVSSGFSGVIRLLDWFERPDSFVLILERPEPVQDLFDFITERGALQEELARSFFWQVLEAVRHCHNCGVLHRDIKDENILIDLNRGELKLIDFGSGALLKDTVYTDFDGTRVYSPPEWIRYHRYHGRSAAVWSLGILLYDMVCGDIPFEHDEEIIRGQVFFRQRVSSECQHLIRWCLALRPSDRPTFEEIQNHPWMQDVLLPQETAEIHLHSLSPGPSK

[29] = biological target: Cyclin-dependent kinase 8 (Homo sapiens, UniProt P49336); experiment: Navigating the Kinome. Panel member name: CDK8; format: functional
[30] = biological target: Mast/stem cell growth factor receptor Kit (Homo sapiens, UniProt P10721); format: functional;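 note: KIT entry within a kinase panel assay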
[31] = biological target: Tyrosine-protein kinase ABL1 (Homo sapiens, UniProt P00519); format: functional
[32] = biological target: Mitogen-activated protein kinase kinase kinase kinase 4 (Homo sapiens, UniProt O95819); format: functional
Chain of Mitogen-activated protein kinase kinase kinase kinase 4 (O95819 whole entry): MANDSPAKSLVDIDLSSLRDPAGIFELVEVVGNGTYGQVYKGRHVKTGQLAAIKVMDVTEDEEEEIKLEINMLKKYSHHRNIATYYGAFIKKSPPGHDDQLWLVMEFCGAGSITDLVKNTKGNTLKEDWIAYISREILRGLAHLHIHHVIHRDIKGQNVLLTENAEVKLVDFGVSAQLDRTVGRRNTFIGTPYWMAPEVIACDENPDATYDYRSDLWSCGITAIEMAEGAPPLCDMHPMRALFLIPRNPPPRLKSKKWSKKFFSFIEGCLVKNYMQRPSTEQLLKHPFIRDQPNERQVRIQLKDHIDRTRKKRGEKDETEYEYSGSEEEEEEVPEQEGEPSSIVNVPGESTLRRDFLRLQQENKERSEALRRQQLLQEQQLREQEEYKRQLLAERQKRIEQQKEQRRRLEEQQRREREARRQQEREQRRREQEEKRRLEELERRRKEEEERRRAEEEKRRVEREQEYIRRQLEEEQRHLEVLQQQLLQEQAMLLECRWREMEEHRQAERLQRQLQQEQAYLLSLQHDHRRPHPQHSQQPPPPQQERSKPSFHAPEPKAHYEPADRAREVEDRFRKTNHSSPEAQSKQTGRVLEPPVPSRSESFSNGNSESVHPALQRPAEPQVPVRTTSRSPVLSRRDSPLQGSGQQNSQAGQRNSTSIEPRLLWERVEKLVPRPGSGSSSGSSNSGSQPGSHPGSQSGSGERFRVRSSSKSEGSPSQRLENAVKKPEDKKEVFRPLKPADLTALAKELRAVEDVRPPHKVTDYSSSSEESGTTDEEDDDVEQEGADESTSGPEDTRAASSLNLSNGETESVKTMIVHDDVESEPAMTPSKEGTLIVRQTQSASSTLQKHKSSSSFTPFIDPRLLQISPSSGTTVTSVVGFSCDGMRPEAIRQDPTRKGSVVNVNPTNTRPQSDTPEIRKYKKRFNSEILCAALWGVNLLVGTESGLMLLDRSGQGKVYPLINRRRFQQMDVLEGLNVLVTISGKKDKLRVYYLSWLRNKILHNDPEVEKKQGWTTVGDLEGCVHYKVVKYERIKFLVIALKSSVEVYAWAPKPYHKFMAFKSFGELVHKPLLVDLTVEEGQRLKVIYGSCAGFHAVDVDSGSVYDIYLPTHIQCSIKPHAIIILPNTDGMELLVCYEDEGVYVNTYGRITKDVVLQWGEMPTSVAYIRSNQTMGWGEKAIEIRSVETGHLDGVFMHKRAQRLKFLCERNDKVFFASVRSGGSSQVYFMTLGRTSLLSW

[33] = biological target: Serine/threonine-protein kinase TAO1 (Homo sapiens, UniProt Q7L7X3); format: functional
[34] = biological target: Ribosomal protein S6 kinase alpha-3 (Homo sapiens, UniProt P51812); format: functional;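 note: measured within a kinome-wide profiling panel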
[35] = biological target: Macrophage-stimulating protein receptor (Homo sapiens, UniProt Q04912); experiment: Navigating the Kinome. Panel member name: MST1R; format: functional
[36] = biological target: Serine/threonine-protein kinase D3 (Homo sapiens, UniProt O94806); format: functional;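 note: determined within a kinase panel screen, with PRKCN as the panel member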
[37] = biological target: Serine/threonine-protein kinase N2 (Homo sapiens, UniProt Q16513); format: functional
[38] = biological target: Inhibitor of nuclear factor kappa-B kinase subunit epsilon (Homo sapiens, UniProt Q14164); experiment: Navigating the Kinome. Panel member name: IKBKE; format: functional
[39] = biological target: Casein kinase I isoform alpha (Homo sapiens, UniProt P48729); format: functional
[40] = biological target: Tyrosine-protein kinase BTK (Homo sapiens, UniProt Q06187); format: functional
[41] = biological target: Tyrosine-protein kinase Fyn (Homo sapiens, UniProt P06241); format: functional
[42] = biological target: Mitogen-activated protein kinase 9 (Homo sapiens, UniProt P45984); format: functional;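 note: value from a kinome panel profiling assay, MAPK9 panel entry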
[43] = biological target: Death-associated protein kinase 3 (Homo sapiens, UniProt O43293); format: functional;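 note: measured as one member of a kinome-wide profiling panel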
[44] = biological target: Fibroblast growth factor receptor 1 (Homo sapiens, UniProt P11362); format: functional
[45] = biological target: Mitogen-activated protein kinase kinase kinase kinase 5 (Homo sapiens, UniProt Q9Y4K4); format: functional;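 note: measured as one member of a kinome-spanning kinase panel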
[46] = biological target: Mitogen-activated protein kinase 8 (Homo sapiens, UniProt P45983); format: functional;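 note: value comes from one member of a kinome-wide kinase profiling panel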
Activated CDC42 kinase 1 = Activated CDC42 kinase 1 (Homo sapiens, UniProt Q07912); experiment: Navigating the Kinome. Panel member name: ACK1; format: functional
[47] = biological target: Cell division cycle 7-related protein kinase (Homo sapiens, UniProt O00311); format: functional;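 note: value obtained from a kinome-wide kinase panel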
Chain of Cell division cycle 7-related protein kinase (O00311 whole entry): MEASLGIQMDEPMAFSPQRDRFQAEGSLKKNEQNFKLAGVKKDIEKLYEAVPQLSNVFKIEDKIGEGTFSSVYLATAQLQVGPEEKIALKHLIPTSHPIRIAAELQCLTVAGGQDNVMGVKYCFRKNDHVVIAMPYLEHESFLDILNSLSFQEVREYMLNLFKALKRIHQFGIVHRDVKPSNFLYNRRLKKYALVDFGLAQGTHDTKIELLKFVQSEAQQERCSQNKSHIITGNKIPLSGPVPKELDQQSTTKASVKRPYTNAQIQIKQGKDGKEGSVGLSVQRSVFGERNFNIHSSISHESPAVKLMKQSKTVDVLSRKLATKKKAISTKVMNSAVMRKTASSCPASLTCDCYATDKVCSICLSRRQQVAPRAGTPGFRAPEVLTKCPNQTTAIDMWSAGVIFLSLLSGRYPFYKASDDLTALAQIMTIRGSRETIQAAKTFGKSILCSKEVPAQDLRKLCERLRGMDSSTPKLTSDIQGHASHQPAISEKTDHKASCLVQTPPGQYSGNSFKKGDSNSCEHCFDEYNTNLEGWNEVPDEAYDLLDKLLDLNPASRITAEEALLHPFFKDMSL

[48] = biological target: Dual specificity protein kinase CLK4 (Homo sapiens, UniProt Q9HAZ1); format: functional
[49] = biological target: cAMP-dependent protein kinase catalytic subunit alpha (Homo sapiens, UniProt P17612); format: functional
[50] = biological target: Interleukin-1 receptor-associated kinase 4 (Homo sapiens, UniProt Q9NWZ3); format: functional
[51] = biological target: Homeodomain-interacting protein kinase 2 (Homo sapiens, UniProt Q9H2X6); format: functional;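 note: measured within a kinome-wide kinase profiling panel, HIPK2 being one panel member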
[52] = biological target: Melanin-concentrating hormone receptor 1 (Homo sapiens, UniProt Q99705); experiment: Late-stage fluorescence-based counterscreen for antagonists of the G-protein coupled receptor 7 (GPR7): cell-based dose response assay to identify antagonists of the melanin-concentrating hormone receptor 1 (MCHR1) Set 5.; format: functional
[53] = biological target: T5, Neuropeptides B/W receptor type 1 (Homo sapiens, UniProt P48145); experiment: human NPBW1 receptor blockade, IC50 – cell-based, fluorescence, dose response, set 5, late-stage follow-up (AID 588566); format: functional
T5 sequence (P48145 whole entry): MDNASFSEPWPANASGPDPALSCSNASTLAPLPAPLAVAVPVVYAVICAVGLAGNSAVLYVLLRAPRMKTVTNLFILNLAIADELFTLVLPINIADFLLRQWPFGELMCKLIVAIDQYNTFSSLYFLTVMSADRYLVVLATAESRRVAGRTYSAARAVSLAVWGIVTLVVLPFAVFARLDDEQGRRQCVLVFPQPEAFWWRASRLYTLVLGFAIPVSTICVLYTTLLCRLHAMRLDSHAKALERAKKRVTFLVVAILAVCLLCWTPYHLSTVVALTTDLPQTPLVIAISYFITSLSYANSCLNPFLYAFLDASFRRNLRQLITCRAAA

## Cc1ccc2[nH]cc(/C=C/c3cc[n+](C)cc3)c2c1
[1]
  IC50: 3.49 µM (active)
[2]
  IC50: > 100 µM (inactive)
[3]
  IC50: > 99 µM (inactive)
INS1
  AC50: 4.88 µM (active)
Beta-lactamase [4]
  IC50: > 59.6 µM (inactive)
[5]
  AC50: 1.49 µM (active)
[6]
  IC50: > 99 µM (inactive)
[7]
  EC50: 9.85 µM (active)
[8]
  EC50: 12.2 µM (active)
Beta-lactamase [9]
  IC50: 49.2 µM (inactive)
[10]
  IC50: > 99 µM (inactive)
[11]
  EC50: 1.43 µM (active)
[12]
  EC50: 13.6 µM (active)
[13]
  IC50: > 99 µM (inactive)
[14]
  EC50: > 60 µM (not active)

## COC(=O)C(C)Sc1ccc2nnc(-c3ccc(F)cc3)n2n1 (stereo unspecified)
[15]
  AC50: 5.24 µM (active)
[16]
  AC50: 1.24 µM (active)
Cytochrome P450 2C19
  AC50: 39.8 µM (inconclusive)
Cytochrome P450 2C9
  AC50: 3.55 µM (inconclusive)

## CC(C)C(CO)NC(=O)c1cccc(-n2nc(C(C)(C)C)cc2NC(=O)Nc2cccc3ccccc23)c1 (stereo unspecified)
[17]
  Ki: > 6.31 µM (inactive)
[18]
  Ki: > 3.98 µM (inactive)
[19]
  Ki: > 3.98 µM (inactive)
[20]
  Ki: > 7.94 µM (inactive)
[21]
  Ki: > 3.98 µM (inactive)
[22]
  Ki: > 3.98 µM (inactive)
[23]
  Ki: > 6.31 µM (inactive)
[24]
  Ki: > 3.98 µM (inactive)
[25]
  Ki: > 5.01 µM (inactive)
Focal adhesion kinase 1
  Ki: > 6.31 µM (inactive) and > 5.01 µM (inactive)
[26]
  Ki: > 3.98 µM (inactive)
[27]
  Ki: 398 nM (active) and 501 nM (active)
[28]
  Ki: > 6.31 µM (inactive)
[29]
  Ki: 2.51 µM (active)
[30]
  Ki: > 3.98 µM (inactive)
[31]
  Ki: > 3.98 µM (inactive)
[32]
  Ki: > 5.01 µM (inactive)
[33]
  Ki: > 6.31 µM (inactive)
[34]
  Ki: > 3.98 µM (inactive)
[35]
  Ki: > 3.98 µM (inactive)
[36]
  Ki: > 3.98 µM (inactive)
[37]
  Ki: 0.398 µM (active)
[38]
  Ki: > 3.16 µM (inactive)
[39]
  Ki: > 3.98 µM (inactive)
[40]
  Ki: > 6.31 µM (inactive)
[41]
  Ki: > 6.31 µM (inactive)
[42]
  Ki: 0.316 µM (active)
[43]
  Ki: > 5.01 µM (inactive)
[44]
  Ki: > 3.98 µM (inactive)
[45]
  Ki: > 3.98 µM (inactive)
[46]
  Ki: > 5.01 µM (inactive)
Activated CDC42 kinase 1
  Ki: > 3.98 µM (inactive)

## Cc1cccc(CNc2cc(-c3c[nH]c4ncccc34)cc(Cl)n2)c1C
[47]
  Ki: 0.00126 µM (active)
[48]
  Ki: 0.00501 µM (active)
[22]
  Ki: 0.0251 µM (active)
[49]
  Ki: 0.158 µM (active)
[28]
  Ki: 0.501 µM (active)
[32]
  Ki: 0.00398 µM (active)
[50]
  Ki: > 10 µM (inactive)
[51]
  Ki: 0.398 µM (active)

## CCOc1c(F)cc(Oc2c(Cl)cnn(Cc3cccc4ccccc34)c2=O)cc1F
[52]
  IC50: 9.19 µM (active)
[53]
  IC50: 2.37 µM (active)
